The values below come from BindingDB's records for doi:10.1021/jm00080a021 (Notre-Dame Hospital Research, 1992).

For this experiment, the target named is Ribonucleoside-diphosphate reductase large subunit R1 (Herpes simplex virus type 1). The experiment can be described thus: Inhibitory concentration against HSV-1 ribonucleotide reductase R1 protein binding.
Molecule `CC[C@H](C)[C@H](NC(=O)[C@@H](NC(=O)[C@@H](NC(=O)CNC(=O)[C@H](C)NC(=O)[C@H](Cc1ccc(O)cc1)NC(C)=O)[C@@H](C)O)C(C)C)C(=O)N[C@@H](CC(N)=O)C(=O)N[C@@H](CC(N)=O)C(=O)N[C@@H](CC(C)C)C(=O)O` came in with an IC50 of 640 µM.

With “Ac-YAGTVINSL-OH [2-{2-[2-(2-{2-[2-(2-{2-[2-Acetylamino-3-(4-hydroxy-phenyl)-propionylamino]-propionylamino}-acetylamino)-3-hydroxy-butyrylamino]-3-methyl-butyrylamino}-3-methyl-pentanoylamino)-3-carbamoyl-propionylamino]-3-hydroxy-propionylamino}-4-methyl-pentanoic acid]”, the IC50 is over 1000 µM.

On to `CC(=O)N[C@@H](Cc1ccc(O)cc1)C(=O)N[C@@H](C)C(=O)NCC(=O)N[C@H](C(=O)N[C@H](C(=O)N[C@@H](C(=O)N[C@@H](CC(N)=O)C(=O)N[C@@H](CC(=O)O)C(=O)N[C@@H](CC(C)C)C(=O)O)C(C)C)C(C)C)[C@@H](C)O` [2-{2-[2-(2-{2-[2-(2-{2-[2-Acetylamino-3-(4-hydroxy-phenyl)-propionylamino]-propionylamino}-acetylamino)-3-hydroxy-butyrylamino]-3-methyl-butyrylamino}-3-methyl-butyrylamino)-3-carbamoyl-propionylamino]-3-carboxy-propionylamino}-4-methyl-pentanoicacid], for which the IC50 was over 1000 µM.

For the molecule `CC[C@H](C)[C@H](NC(=O)[C@@H](NC(=O)[C@@H](NC(=O)CNC(=O)[C@H](C)NC(=O)[C@H](Cc1ccc(O)cc1)NC(C)=O)[C@@H](C)O)C(C)C)C(=O)N[C@@H](CO)C(=O)N[C@@H](CC(=O)O)C(=O)N[C@@H](CC(C)C)C(=O)O` [2-{2-[2-(2-{2-[2-(2-{2-[2-Acetylamino-3-(4-hydroxy-phenyl)-propionylamino]-propionylamino}-acetylamino)-3-hydroxy-butyrylamino]-3-methyl-butyrylamino}-3-methyl-pentanoylamino)-3-hydroxy-propionylamino]-3-carboxy-propionylamino}-4-methyl-pentanoicacid], the IC50 amounted to 395 µM.

`CC[C@H](C)[C@H](NC(=O)[C@@H](NC(=O)[C@@H](NC(=O)CNC(=O)[C@H](C)NC(=O)[C@H](Cc1ccc(O)cc1)NC(C)=O)[C@@H](C)O)C(C)C)C(=O)N[C@@H](CC(N)=O)C(=O)N[C@@H](CCC(=O)O)C(=O)N[C@@H](CC(C)C)C(=O)O` [2-{2-[2-(2-{2-[2-(2-{2-[2-Acetylamino-3-(4-hydroxy-phenyl)-propionylamino]-propionylamino}-acetylamino)-3-hydroxy-butyrylamino]-3-methyl-butyrylamino}-3-methyl-pentanoylamino)-3-carbamoyl-propionylamino]-4-carboxy-butyrylamino}-4-methyl-pentanoicacid] returned an IC50 of 650 µM.

Take “Ac-YAGTVINCL-OH [2-{2-[2-(2-{2-[2-(2-{2-[2-Acetylamino-3-(4-hydroxy-phenyl)-propionylamino]-propionylamino}-acetylamino)-3-hydroxy-butyrylamino]-3-methyl-butyrylamino}-3-methyl-pentanoylamino)-3-carbamoyl-propionylamino]-3-mercapto-propionylamino}-4-methyl-pentanoic acid]”: the IC50 is over 1000 µM.
